Tests used:
Experiment in all cases: KINOMEscan (ScanMAX) kinase profiling
Format in all cases: binding
[1] = target: T1, panel of 468 kinases (Homo sapiens, UniProt P17948); settings: FLT1; 1 μM; read-out: % control
T1 construct: purchased KINOMEscan (ScanMAX) service

[2] = target: T2, panel of 468 kinases (Homo sapiens, UniProt P42336); settings: PIK3CA; 1 μM; read-out: % control
T2 construct: purchased KINOMEscan (ScanMAX) service

[3] = target: T3, panel of 468 kinases (Homo sapiens, UniProt P45983); settings: JNK1; 1 μM; read-out: % control
T3 construct: purchased KINOMEscan (ScanMAX) service

[4] = target: T4, panel of 468 kinases (Homo sapiens, UniProt Q07912); settings: TNK2; 1 μM; read-out: % control
T4 construct: purchased KINOMEscan (ScanMAX) service

[5] = target: T5, panel of 468 kinases (Homo sapiens, UniProt Q13546); settings: RIPK1; 1 μM; read-out: % control
T5 construct: purchased KINOMEscan (ScanMAX) service
T5 sequence (Q13546 1-671): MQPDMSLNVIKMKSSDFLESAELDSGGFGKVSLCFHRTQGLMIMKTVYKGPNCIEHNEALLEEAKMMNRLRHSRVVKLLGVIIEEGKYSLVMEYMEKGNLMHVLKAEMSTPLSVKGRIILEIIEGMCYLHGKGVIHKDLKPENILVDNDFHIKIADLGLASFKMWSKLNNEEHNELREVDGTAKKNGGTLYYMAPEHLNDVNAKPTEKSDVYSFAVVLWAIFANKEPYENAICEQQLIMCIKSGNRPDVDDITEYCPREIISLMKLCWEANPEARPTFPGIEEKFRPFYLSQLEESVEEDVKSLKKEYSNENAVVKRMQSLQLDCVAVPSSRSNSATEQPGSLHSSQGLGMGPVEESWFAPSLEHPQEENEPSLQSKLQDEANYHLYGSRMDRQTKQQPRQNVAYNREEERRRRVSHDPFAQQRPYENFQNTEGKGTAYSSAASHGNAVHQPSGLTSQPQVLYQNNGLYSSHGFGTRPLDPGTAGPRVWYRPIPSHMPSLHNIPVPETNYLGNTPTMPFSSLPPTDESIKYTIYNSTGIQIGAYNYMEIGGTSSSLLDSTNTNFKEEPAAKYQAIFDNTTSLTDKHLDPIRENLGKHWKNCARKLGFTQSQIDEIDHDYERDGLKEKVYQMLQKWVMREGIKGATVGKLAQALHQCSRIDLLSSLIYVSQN

[6] = target: T6, panel of 468 kinases (Homo sapiens, UniProt Q8NE63); settings: HIPK4; 1 μM; read-out: % control
T6 construct: purchased KINOMEscan (ScanMAX) service
T6 sequence (Q8NE63 1-616): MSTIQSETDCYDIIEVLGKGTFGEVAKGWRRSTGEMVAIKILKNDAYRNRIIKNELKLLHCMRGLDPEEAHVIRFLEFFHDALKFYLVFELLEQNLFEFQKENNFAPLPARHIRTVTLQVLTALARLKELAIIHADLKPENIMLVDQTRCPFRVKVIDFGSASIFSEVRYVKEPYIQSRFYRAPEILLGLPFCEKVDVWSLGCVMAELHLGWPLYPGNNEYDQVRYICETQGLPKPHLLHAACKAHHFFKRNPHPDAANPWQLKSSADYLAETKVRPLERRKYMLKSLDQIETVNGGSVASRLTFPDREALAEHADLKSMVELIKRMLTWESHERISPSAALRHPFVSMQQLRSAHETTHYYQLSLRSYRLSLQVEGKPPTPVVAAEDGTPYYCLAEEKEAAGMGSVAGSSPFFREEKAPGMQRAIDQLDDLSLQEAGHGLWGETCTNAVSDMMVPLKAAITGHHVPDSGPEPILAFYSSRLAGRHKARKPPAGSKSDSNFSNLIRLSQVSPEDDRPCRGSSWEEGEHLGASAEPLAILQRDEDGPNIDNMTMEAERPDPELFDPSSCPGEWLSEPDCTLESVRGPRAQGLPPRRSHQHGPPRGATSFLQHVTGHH

[7] = target: T7, panel of 468 kinases (Homo sapiens, UniProt Q9H4B4); settings: PLK3; 1 μM; read-out: % control
T7 construct: purchased KINOMEscan (ScanMAX) service

[8] = target: T8, panel of 468 kinases (Homo sapiens, UniProt Q9UBE8); settings: NLK; 1 μM; read-out: % control
T8 construct: purchased KINOMEscan (ScanMAX) service
T8 sequence (Q9UBE8 1-527): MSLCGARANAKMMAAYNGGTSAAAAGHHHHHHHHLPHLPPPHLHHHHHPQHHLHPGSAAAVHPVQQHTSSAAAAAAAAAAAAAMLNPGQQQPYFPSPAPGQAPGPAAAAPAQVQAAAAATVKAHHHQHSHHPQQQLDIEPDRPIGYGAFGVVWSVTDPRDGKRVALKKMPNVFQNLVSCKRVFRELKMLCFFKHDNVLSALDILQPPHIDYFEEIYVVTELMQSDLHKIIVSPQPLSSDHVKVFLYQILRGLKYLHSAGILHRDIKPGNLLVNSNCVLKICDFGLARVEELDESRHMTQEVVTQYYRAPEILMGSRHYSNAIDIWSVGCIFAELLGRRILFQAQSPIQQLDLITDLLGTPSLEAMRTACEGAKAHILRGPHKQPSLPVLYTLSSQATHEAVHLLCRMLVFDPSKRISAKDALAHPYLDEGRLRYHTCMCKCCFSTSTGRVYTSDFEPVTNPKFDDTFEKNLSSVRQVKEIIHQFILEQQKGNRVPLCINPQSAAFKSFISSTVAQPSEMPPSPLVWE

T1 sequence (P17948 27-1338): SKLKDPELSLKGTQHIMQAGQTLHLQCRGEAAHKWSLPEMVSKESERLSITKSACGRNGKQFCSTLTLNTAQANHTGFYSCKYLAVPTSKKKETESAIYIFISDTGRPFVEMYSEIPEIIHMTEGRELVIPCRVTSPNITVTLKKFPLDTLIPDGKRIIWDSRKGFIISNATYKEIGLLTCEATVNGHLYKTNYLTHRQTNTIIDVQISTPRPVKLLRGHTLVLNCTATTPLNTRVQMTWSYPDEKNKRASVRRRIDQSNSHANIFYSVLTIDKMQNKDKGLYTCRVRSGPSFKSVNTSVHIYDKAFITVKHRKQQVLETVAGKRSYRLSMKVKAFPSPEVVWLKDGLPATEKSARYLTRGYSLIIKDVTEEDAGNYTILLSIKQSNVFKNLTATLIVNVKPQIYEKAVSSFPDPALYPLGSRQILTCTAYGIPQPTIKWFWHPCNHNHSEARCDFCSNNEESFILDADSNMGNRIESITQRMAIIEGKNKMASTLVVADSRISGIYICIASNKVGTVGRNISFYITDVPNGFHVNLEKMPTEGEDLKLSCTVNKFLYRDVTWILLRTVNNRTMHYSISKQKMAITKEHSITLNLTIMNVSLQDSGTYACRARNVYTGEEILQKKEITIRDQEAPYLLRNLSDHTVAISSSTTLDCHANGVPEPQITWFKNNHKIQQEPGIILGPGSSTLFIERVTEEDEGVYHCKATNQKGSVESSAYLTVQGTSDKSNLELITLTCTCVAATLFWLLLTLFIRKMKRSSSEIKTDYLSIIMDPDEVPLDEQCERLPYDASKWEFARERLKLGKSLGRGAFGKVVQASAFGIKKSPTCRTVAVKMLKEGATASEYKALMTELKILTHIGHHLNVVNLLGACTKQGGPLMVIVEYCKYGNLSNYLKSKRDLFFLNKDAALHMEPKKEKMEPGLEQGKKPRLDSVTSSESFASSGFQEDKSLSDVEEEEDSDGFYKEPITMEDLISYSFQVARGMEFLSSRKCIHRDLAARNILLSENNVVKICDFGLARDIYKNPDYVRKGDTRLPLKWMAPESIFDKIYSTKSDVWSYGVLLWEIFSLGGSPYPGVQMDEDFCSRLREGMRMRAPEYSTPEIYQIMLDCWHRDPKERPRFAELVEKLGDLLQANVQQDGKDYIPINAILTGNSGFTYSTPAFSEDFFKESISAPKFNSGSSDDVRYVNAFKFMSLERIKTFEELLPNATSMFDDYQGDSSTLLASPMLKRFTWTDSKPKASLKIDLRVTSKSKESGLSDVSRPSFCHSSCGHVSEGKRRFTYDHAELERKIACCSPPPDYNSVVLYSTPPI
T7 sequence (Q9H4B4 whole entry): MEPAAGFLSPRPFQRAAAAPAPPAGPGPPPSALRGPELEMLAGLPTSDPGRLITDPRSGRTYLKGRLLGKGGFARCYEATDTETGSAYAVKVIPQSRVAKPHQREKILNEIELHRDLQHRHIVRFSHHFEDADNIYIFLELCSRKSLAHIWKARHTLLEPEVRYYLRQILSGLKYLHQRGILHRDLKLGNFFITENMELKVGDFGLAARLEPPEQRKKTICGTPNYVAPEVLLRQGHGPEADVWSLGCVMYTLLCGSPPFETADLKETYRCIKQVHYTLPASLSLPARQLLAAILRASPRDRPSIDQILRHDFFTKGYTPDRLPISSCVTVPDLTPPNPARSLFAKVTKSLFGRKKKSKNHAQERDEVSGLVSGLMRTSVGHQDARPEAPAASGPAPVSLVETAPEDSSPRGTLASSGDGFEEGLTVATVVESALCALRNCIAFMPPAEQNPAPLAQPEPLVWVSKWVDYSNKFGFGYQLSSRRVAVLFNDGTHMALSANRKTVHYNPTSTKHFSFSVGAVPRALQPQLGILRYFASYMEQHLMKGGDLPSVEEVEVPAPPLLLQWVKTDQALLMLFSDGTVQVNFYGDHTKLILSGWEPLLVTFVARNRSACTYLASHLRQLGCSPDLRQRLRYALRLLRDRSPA
T3 sequence (P45983 whole entry): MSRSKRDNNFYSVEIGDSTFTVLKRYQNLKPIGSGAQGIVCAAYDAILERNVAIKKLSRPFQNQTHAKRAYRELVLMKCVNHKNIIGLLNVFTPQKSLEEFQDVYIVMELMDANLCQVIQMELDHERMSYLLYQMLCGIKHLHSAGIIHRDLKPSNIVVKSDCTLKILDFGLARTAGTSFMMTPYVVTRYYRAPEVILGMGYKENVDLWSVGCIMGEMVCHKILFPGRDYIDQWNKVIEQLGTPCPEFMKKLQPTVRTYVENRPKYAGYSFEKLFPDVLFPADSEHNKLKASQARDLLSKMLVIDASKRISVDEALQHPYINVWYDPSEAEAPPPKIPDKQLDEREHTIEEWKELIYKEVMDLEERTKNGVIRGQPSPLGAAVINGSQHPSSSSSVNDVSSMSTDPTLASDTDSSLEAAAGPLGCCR
T4 sequence (Q07912 whole entry): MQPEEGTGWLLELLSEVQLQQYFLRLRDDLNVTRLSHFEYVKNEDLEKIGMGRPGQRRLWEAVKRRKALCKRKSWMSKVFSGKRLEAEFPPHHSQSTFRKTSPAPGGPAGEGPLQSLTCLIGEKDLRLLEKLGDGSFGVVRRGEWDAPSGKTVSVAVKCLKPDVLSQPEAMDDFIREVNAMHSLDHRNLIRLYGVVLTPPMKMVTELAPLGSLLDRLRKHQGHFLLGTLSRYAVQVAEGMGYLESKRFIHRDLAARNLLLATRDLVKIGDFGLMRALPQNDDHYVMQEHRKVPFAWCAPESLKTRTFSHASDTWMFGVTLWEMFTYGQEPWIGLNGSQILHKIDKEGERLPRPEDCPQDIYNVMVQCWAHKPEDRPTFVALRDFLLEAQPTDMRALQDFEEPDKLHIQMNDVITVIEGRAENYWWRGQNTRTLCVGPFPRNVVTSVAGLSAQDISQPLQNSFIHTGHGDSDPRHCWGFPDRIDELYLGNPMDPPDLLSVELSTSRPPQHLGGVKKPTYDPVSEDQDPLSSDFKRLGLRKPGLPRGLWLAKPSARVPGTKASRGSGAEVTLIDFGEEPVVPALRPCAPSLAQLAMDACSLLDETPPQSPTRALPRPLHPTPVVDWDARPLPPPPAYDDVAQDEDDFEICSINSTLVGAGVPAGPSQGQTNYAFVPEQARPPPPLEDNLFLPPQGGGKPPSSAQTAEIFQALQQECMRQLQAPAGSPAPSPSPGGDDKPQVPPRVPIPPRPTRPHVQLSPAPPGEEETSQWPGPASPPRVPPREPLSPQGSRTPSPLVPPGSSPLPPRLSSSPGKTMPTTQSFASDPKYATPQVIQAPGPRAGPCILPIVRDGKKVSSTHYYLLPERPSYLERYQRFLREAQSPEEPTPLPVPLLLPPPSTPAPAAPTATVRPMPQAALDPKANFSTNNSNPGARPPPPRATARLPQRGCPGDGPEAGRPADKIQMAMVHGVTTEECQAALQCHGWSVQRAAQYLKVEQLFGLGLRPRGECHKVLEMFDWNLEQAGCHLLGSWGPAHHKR
T2 sequence (P42336 whole entry): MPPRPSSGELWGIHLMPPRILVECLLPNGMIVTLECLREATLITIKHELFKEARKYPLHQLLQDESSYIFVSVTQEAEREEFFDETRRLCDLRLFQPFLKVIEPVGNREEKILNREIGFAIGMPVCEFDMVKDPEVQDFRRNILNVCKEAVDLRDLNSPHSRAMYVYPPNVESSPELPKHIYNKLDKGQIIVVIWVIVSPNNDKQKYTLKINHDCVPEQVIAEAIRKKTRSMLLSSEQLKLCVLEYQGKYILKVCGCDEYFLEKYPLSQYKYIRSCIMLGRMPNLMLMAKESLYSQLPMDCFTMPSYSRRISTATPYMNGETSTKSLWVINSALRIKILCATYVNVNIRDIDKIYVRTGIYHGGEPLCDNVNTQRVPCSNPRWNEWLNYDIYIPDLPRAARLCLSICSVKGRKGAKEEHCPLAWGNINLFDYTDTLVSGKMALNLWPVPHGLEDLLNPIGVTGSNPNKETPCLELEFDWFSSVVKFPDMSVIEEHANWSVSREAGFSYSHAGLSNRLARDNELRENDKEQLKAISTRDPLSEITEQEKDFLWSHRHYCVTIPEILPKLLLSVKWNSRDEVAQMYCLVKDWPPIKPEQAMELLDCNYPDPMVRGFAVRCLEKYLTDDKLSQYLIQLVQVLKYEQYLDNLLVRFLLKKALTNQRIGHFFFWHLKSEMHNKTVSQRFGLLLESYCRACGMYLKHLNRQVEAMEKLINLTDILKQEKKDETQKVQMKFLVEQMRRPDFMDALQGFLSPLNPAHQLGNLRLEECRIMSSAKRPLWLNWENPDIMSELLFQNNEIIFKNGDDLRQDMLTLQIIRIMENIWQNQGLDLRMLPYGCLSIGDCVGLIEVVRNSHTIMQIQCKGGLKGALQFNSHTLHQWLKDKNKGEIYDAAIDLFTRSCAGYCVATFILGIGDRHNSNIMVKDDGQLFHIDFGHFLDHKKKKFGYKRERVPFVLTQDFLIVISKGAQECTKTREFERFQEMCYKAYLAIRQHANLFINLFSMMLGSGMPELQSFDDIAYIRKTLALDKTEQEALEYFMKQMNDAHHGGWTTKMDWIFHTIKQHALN

SMILES | remaining binding at 1 µM [1] | remaining binding at 1 µM [2] | remaining binding at 1 µM [3] | remaining binding at 1 µM [4] | remaining binding at 1 µM [5] | remaining binding at 1 µM [6] | remaining binding at 1 µM [7] | remaining binding at 1 µM [8]
CNc1nc(Nc2ccc(S(=O)(=O)N3CCC(N4CCOCC4)CC3)cc2OC)nc2[nH]cc(Cl)c12 [Compound 12, 5-chloro-N2-(2-methoxy-4-((4-morpholinopiperidin-1-yl)sulfonyl)phenyl)-N4-methyl-7H-pyrrolo[2,3-d]pyrimidine-2,4-diamine] | 100% | 97% | 11% | 100% | 92% | 100% | 100% | 100%
CNc1nc(Nc2ccc(C(=O)N3CCC(N4CCOCC4)CC3)c3c2OCO3)nc2[nH]cc(Cl)c12 [Compound 75, (7-((5-chloro-4-(methylamino)-7H-pyrrolo[2,3-d]pyrimidin-2-yl)amino)benzo[d][1,3]dioxol-4-yl)(4-morpholinopiperidin-1-yl)methanone] | 73% | 93% | 0.1% | 100% | 89% | 97% | 100% | 100%
CNc1nc(Nc2ccc(P3(=O)CCN(C4CCOCC4)CC3)cc2OC)nc2[nH]cc(Cl)c12 [Compound 77, 4-(4-((5-chloro-4-(methylamino)-7H-pyrrolo[2,3-d]pyrimidin-2-yl)amino)-3-methoxyphenyl)-1-(tetrahydro-2H-pyran-4-yl)-1,4-azaphosphinane 4-oxide] | 100% | 100% | 0.65% | 81% | 88% | 99% | 96% | 100%

— US12479847B2 (DANA-FARBER CANCER INSTITUTE, INC., priority 2019, dated 2025)
